Experimental findings from US9999672B2, “Pharmaceutical compositions of fumaric acid esters” (XenoPort, Inc., priority 2014, dated 2018) are described below.

Data set [1] is classed as physicochemical. Particulars: 53 h. As for the experimental part:
Approximately 50 mg (N,N-diethylcarbamoyl)methyl methyl (2E)but-2-ene-1,4-dioate powder was spread into a thin layer (˜1 mm) in open quartz containers. The sample was then placed in an ICH2 Photoreactor (Luzchem Research Inc.) with 16 cool white fluorescent lamps (F8T5/CW-8 Watt) installed. The light power was 22.8×10^3 lux with low level of near UV light (320-400 nm) at 2.2 watt/m^2. The sample was taken out after 53 hours to achieve a light exposure of 1.2 million lux hours. The sample solution was prepared at 0.2 mg/mL in diluent (water/acetonitrile/H3PO4 (80/20/0.05 by volume)).
To quantify the photodegratation of the (N,N-diethylcarbamoyl)methyl methyl (2E)but-2-ene-1,4-dioate powder, the presence of (N,N-diethylcarbamoyl)methyl (1S,3S,2R,4R)-2-{[(N,N-diethylcarbamoyl)methyl]oxycarbonyl}-3,4-bis(methoxycarbonyl)cyclobutanecarboxylate (“compound (1)”) was quantified. The structure of compound (1) is shown below:
The amount (weight percent) of compound (1) in the sample was determined by reverse phase HPLC using a C18 column and a 30-minute gradient method according to Table 1 where Mobile Phase A is water/0.05% H3PO4 and Mobile Phase B is water/acetonitrile/H3PO4 (10/90/0.05 by volume) with UV detection at 210 nm. The amount of compound (1) found was 29.0 wt %.

The format of data set [2] is physicochemical. Particulars: 53 h, 0.1 mg/mL, pH 4. As for the experimental part: A quartz flask containing approximately 20 mL of 0.1 mg/mL (N,N-diethylcarbamoyl)methyl methyl (2E)but-2-ene-1,4-dioate in 50 mM pH 4.0 citrate buffer was placed in an ICH2 Photoreactor (Luzchem Research Inc.) with 16 cool white fluorescent lamps (F8T5/CW-8 Watt) installed. The light power was 22.8×10^3 lux with low level of near UV light (320-400 nm) at 2.2 watt/m^2. The sample was taken out after 53 hours to achieve a light exposure of 1.2 million lux hours.
To quantify the photodegratation of the (N,N-diethylcarbamoyl)methyl methyl (2E)but-2-ene-1,4-dioate powder, the presence of (N,N-diethylcarbamoyl)methyl methyl (2Z)but-2-ene-1,4-dioate (“compound (2)”) was quantified. The structure for compound (2) is shown below:
The sample was analyzed using the same HPLC method as described in Example 1. The amount of compound (2) found was 22.3 wt %.

The format of data set [3] is physicochemical. The note with it: 2.1 h. As for the experimental part:
Approximately 50 mg (N,N-Diethylcarbamoyl)methyl methyl (2E)but-2-ene-1,4-dioate powder was spread into a thin layer in open quartz containers. The sample was then placed in an ICH2 Photoreactor (Luzchem Research Inc.) with 16 near-UV fluorescent lamps (Hitachi FL8BL-B) installed. The near-UV light (320-400 nm) power was 94.2 watt/m^2. The sample was taken out after 2.1 hours to achieve a light exposure of 200 watt hour/m^2. The sample was prepared and analyzed the same way as described in Example 1. The amount of compound (1) found was 10.3 wt %.

Like-named read-outs stand apart in the source and are kept apart here.

For the molecule `CCN(CC)C(=O)COC(=O)/C=C/C(=O)OC` [(N,N-Diethylcarbamoyl)methyl methyl (2E)but-2-ene-1,4-dioate], the results for the “amount of compound (1) found (photodegradant)” value in data set [1] and in data set [3] were 29.0 wt % and 10.3 wt %, respectively. The “amount of compound (2) found (2Z isomer photodegradant)” value in data set [2] came out at 22.3 wt %.
